Data reported in patent publication US12324802B2, “Modulators of cystic fibrosis transmembrane conductance regulator” (Vertex Pharmaceuticals Incorporated, priority 2020, dated 2025).

Target: T1, CFTR (F508del/MF-HBE cells) (Homo sapiens, UniProt P13569, DEL508-508)
T1 construct: human bronchial epithelial (HBE) cells derived from CF subjects heterozygous for F508del and a minimal function CFTR mutation; endogenous in cells; host or cells: primary human bronchial epithelial cells from CF subjects (F508del/MF genotype)
Assay: Ussing chamber assay of CFTR-mediated short-circuit currents (identification of potentiator compounds)
Format: cell-based
Conditions: CFTR-mediated ISC in F508del/MF-HBE cells; incubated 18-24 hours at 37° C. with 10 μM (14S)-8-[3-(2-{dispiro[2.0.2.1]heptan-7-yl}ethoxy)-1H-pyrazol-1-yl]-...-2,2,4-trione, 20% human serum
Description: Ussing Chamber Assay of CFTR-Mediated Short-Circuit Currents
Ussing chamber experiments were performed using human bronchial epithelial (HBE) cells derived from CF subjects heterozygous for F508del and a minimal function CFTR mutation (F508del/MF-HBE) and cultured as previously described (Neuberger T, Burton B, Clark H, Van Goor F Methods Mol Biol 2011:741:39-54). After four days the apical media was removed, and the cells were grown at an air liquid interface for >14 days prior to use.
To isolate the CFTR-mediated short-circuit (ISC) current, F508del/MF-HBE grown on Costar® Snapwell™ cell culture inserts were mounted in an Ussing chamber and the transepithelial ISC was measured under voltage-clamp recording conditions (Vhold=0 mV) at 37° C. The basolateral solution contained (in mM) 145 NaCl, 0.83 K2HPO4, 3.3 KH2PO4, 1.2 MgCl2, 1.2 CaCl2), 10 Glucose, 10 HEPES (pH adjusted to 7.4 with NaOH) and the apical solution contained (in mM) 145 NaGluconate, 1.2 MgCl2, 1.2 CaCl2), 10 glucose, 10 HEPES (pH adjusted to 7.4 with NaOH) and 30 μM amiloride to block the epithelial sodium channel. Forskolin (20 μM) was added to the apical surface to activate CFTR, followed by apical addition of a CFTR inhibitor cocktail consisting of BPO, GlyH-101 and CFTR inhibitor 172 (each at 20 μM final assay concentration) to specifically isolate CFTR currents. The CFTR-mediated ISC (μA/cm^2) for each condition was determined from the peak forskolin response to the steady-state current following inhibition.
Identification of Potentiator Compounds
The activity of the CFTR potentiator compounds on the CFTR-mediated ISC was determined in Ussing chamber studies as described above. The F508del/MF-HBE cell cultures were incubated with the potentiator compounds at a range of concentrations in combination with 10 μM (14S)-8-[3-(2-{dispiro[2.0.2.1]heptan-7-yl}ethoxy)-1H-pyrazol-1-yl]-12,12-dimethyl-2λ^6-thia-3,9,11,18,23-pentaazatetracyclo [17.3.1.111,14.05,10]tetracosa-1(22),5,7,9,19(23),20-hexaene-2,2,4-trione for 18-24 hours at 37° C. and in the presence of 20% human serum. The concentration of potentiator compounds and (14S)-8-[3-(2-{dispiro[2.0.2.1]heptan-7-yl}ethoxy)-1H-pyrazol-1-yl]-12,12-dimethyl-2λ^6-thia-3,9,11,18,23-pentaazatetracyclo [17.3.1.111,14.05,10]tetracosa-1(22),5,7,9,19(23),20-hexaene-2,2,4-trione used during the 18-24 hours incubations was kept constant throughout the Ussing chamber measurement of the CFTR-mediated ISC to ensure compounds were present throughout the entire experiment. The efficacy and potency of the putative F508del potentiators was compared to that of the known Vertex potentiator, ivacaftor (N-[2,4-bis(1,1-dimethylethyl)-5-hydroxyphenyl]-1,4-dihydro-4-oxoquinoline-3-carboxamide).

T1 sequence (P13569 with tags, fused parts or gaps DEL508-508): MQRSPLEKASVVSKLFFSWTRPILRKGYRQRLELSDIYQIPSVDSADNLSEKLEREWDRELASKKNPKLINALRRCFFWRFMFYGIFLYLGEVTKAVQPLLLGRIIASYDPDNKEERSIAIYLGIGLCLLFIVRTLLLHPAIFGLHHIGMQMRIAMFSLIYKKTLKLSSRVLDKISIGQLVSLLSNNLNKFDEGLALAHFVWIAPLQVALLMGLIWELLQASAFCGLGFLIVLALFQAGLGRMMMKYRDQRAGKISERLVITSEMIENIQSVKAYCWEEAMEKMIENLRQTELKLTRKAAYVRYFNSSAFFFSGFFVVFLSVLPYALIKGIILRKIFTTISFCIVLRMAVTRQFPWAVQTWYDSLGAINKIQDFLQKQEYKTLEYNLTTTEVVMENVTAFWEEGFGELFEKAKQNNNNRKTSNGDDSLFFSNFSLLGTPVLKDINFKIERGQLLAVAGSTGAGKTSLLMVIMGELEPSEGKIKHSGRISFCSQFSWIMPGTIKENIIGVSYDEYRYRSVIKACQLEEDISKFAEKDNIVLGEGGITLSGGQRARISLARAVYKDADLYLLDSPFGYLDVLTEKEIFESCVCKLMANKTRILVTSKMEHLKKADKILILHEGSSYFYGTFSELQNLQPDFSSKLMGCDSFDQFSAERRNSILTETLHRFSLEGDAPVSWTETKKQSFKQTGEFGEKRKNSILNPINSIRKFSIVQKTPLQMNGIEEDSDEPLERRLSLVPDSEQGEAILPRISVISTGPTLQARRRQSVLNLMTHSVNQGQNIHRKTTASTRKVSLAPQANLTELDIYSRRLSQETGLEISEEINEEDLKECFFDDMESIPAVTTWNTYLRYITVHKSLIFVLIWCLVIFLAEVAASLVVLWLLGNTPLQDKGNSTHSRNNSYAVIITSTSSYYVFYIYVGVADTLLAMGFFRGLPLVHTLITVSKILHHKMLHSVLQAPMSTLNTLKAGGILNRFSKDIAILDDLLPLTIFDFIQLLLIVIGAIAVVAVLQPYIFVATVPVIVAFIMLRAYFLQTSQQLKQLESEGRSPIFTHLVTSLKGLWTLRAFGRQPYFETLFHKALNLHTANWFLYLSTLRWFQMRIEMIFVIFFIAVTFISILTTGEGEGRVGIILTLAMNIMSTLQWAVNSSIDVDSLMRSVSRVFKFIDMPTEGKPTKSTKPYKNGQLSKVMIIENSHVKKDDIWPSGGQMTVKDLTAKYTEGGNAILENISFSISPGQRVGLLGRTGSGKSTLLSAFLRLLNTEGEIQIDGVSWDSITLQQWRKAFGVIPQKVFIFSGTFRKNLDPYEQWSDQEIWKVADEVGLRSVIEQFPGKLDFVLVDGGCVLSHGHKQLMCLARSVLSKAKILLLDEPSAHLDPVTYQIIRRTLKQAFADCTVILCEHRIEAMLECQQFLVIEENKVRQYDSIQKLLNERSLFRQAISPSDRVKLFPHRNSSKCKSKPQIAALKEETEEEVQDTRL

| Structure (SMILES) | EC50 [nM] |
| --- | --- |
| Nc1cc(C(F)(F)F)c2nc1-c1nnc(o1)C(O)(C(F)(F)F)CCCCCCC1CCCN21 (single isomer, unassigned) [Compound 23, 21-amino-6,19-bis(trifluoromethyl)-23-oxa-3,4,17,22-tetraazatetracyclo[16.3.1.12,5.013,17]tricosa-1(22),2,4,18,20-pentaen-6-ol] | < 500 |
| Nc1cc(C(F)(F)F)c2nc1-c1nnc(o1)C(O)(C(F)(F)F)CCCCCCC1CCCN21 (single isomer, unassigned) [Compound 24, 21-amino-6,19-bis(trifluoromethyl)-23-oxa-3,4,17,22-tetraazatetracyclo[16.3.1.12,5.013,17]tricosa-1(22),2,4,18,20-pentaen-6-ol] | < 500 |
| Nc1cc(C(F)(F)F)c2nc1-c1nnc(o1)C(O)(C(F)(F)F)CCCCCCC1CCCN21 (single isomer, unassigned) [Compound 25, 21-amino-6,19-bis(trifluoromethyl)-23-oxa-3,4,17,22-tetraazatetracyclo[16.3.1.12,5.013,17]tricosa-1(22),2,4,18,20-pentaen-6-ol] | < 500 |
| Nc1cc(C(F)(F)F)c2nc1-c1nnc(o1)C(O)(C(F)(F)F)CCCCCCC1CCCN21 (single isomer, unassigned) [Compound 26, 21-amino-6,19-bis(trifluoromethyl)-23-oxa-3,4,17,22-tetraazatetracyclo[16.3.1.12,5.013,17]tricosa-1(22),2,4,18,20-pentaen-6-ol] | > 1000 |
| CC1(C)CC2CCCCCC(O)(C(F)(F)F)C3=NN=C(O3)c3nc(c(C(F)(F)F)cc3N)N2C1 (single isomer, unassigned) [Compound 29, 20-amino-14,14-dimethyl-6,18-bis(trifluoromethyl)-22-oxa-3,4,16,21-tetraazatetracyclo[15.3.1.12,5.012,16]docosa-1(21),2,4,17,19-pentaen-6-ol] | < 500 |
| Nc1cc(C(F)(F)F)c2nc1-c1nnc(o1)C(O)(C(F)(F)F)CCCC[C@@H]1CCCN21 (single isomer, unassigned) [Compound 32] | < 500 |
| Nc1cc(C(F)(F)F)c2nc1-c1nnc(o1)C(O)(C(F)(F)F)CCCC[C@@H]1CCCN21 (single isomer, unassigned) [Compound 33] | > 1000 |
| COCCN1CCCCCCC(O)(C(F)(F)F)C2=NN=C(O2)c2nc1c(C(F)(F)F)cc2N (single isomer, unassigned) [Compound 34, 17-amino-13-(2-methoxyethyl)-6,15-bis(trifluoromethyl)-19-oxa-3,4,13,18-tetrazatricyclo[12.3.1.12,5]nonadeca-1(18),2,4,14,16-pentaen-6-ol] | < 500 |
| COCCN1CCCCCCC(O)(C(F)(F)F)C2=NN=C(O2)c2nc1c(C(F)(F)F)cc2N (single isomer, unassigned) [Compound 35, 17-amino-13-(2-methoxyethyl)-6,15-bis(trifluoromethyl)-19-oxa-3,4,13,18-tetrazatricyclo[12.3.1.12,5]nonadeca-1(18),2,4,14,16-pentaen-6-ol] | > 1000 |
| Nc1cc(C(F)(F)F)c2nc1-c1nnc(o1)C(O)(C(F)(F)F)CCCC(=O)N1CCN2CC1 (single isomer, unassigned) [Compound 37, 5-amino-11-hydroxy-3,11-bis(trifluoromethyl)-21-oxa-1,8,9,16,22-pentaazatetracyclo[14.2.2.12,6.17,10]docosa-2,4,6(22),7,9-pentaen-15-one] | < 500 |
| Nc1cc(C(F)(F)F)c2nc1-c1nnc(o1)C(O)(C(F)(F)F)CCCC(=O)N1CCN2CC1 (single isomer, unassigned) [Compound 38, 5-amino-11-hydroxy-3,11-bis(trifluoromethyl)-21-oxa-1,8,9,16,22-pentaazatetracyclo[14.2.2.12,6.17,10]docosa-2,4,6(22),7,9-pentaen-15-one] | > 1000 |
| CN1CCCCCCC(O)(C(F)(F)F)C2=NN=C(O2)c2nc1c(S(C)(=O)=O)cc2N (single isomer, unassigned) [Compound 39, 17-amino-13-methyl-15-methylsulfonyl-6-(trifluoromethyl)-19-oxa-3,4,13,18-tetrazatricyclo[12.3.1.12,5]nonadeca-1(18),2,4,14,16-pentaen-6-ol] | < 500 |
| CN1CCCCCCC(O)(C(F)(F)F)C2=NN=C(O2)c2nc1c(S(C)(=O)=O)cc2N (single isomer, unassigned) [Compound 40, 17-amino-13-methyl-15-methylsulfonyl-6-(trifluoromethyl)-19-oxa-3,4,13,18-tetrazatricyclo[12.3.1.12,5]nonadeca-1(18),2,4,14,16-pentaen-6-ol] | 500 to 1000 |
| Nc1cc(C(F)(F)F)c2nc1-c1nnc(o1)C(O)(C(F)(F)F)CCCCCCN2CCO (single isomer, unassigned) [Compound 41, 17-amino-13-(2-hydroxyethyl)-6,15-bis(trifluoromethyl)-19-oxa-3,4,13,18-tetrazatricyclo[12.3.1.12,5]nonadeca-1(18),2,4,14,16-pentaen-6-ol] | < 500 |
| CN1CCN(C)c2nc(c(N)cc2C(F)(F)F)C2=NN=C(O2)C(O)(C(F)(F)F)CCC1=O (single isomer, unassigned) [Compound 44, 17-amino-6-hydroxy-10,13-dimethyl-6,15-bis(trifluoromethyl)-19-oxa-3,4,10,13,18-pentazatricyclo[12.3.1.12,5]nonadeca-1(18),2,4,14,16-pentaen-9-one] | 500 to 1000 |
| CC1(O)CCCCC[C@@H]2CCCN2c2nc(c(N)cc2C(F)(F)F)C2=NN=C1O2 (single isomer, unassigned) [Compound 45] | < 500 |
| CCOC(=O)CN1CCCCCCC(O)(C(F)(F)F)C2=NN=C(O2)c2nc1c(C(F)(F)F)cc2N (single isomer, unassigned) [Compound 46, ethyl 2-[17-amino-6-hydroxy-6,15-bis(trifluoromethyl)-19-oxa-3,4,13,18-tetrazatricyclo[12.3.1.12,5]nonadeca-1(18),2,4,14,16-pentaen-13-yl]acetate] | < 500 |
| CNC(=O)CN1CCCCCCC(O)(C(F)(F)F)C2=NN=C(O2)c2nc1c(C(F)(F)F)cc2N (single isomer, unassigned) [Compound 48, 2-[17-amino-6-hydroxy-6,15-bis(trifluoromethyl)-19-oxa-3,4,13,18-tetrazatricyclo[12.3.1.12,5]nonadeca-1(18),2,4,14,16-pentaen-13-yl]-N-methyl-acetamide] | < 500 |
| Cc1cc(N)c2nc1N1CCC[C@H]1CCCCCC(O)(C(F)(F)F)C1=NN=C2O1 (single isomer, unassigned) [Compound 51] | < 500 |
| CC(C)N1CCCCCCC(O)(C(F)(F)F)C2=NN=C(O2)c2nc1c(C(F)(F)F)cc2N (single isomer, unassigned) [Compound 52, 17-amino-13-isopropyl-6,15-bis(trifluoromethyl)-19-oxa-3,4,13,18-tetrazatricyclo[12.3.1.12,5]nonadeca-1(18),2,4,14,16-pentaen-6-ol] | < 500 |
| CC(C)N1CCCCCCC(O)(C(F)(F)F)C2=NN=C(O2)c2nc1c(C(F)(F)F)cc2N (single isomer, unassigned) [Compound 53, 17-amino-13-isopropyl-6,15-bis(trifluoromethyl)-19-oxa-3,4,13,18-tetrazatricyclo[12.3.1.12,5]nonadeca-1(18),2,4,14,16-pentaen-6-ol] | > 1000 |
| Nc1cc(C(F)(F)F)c2nc1-c1nnc(o1)C(O)(C(F)(F)F)CCCCC[C@@H]1COCCN21 (single isomer, unassigned) [Compound 54] | < 500 |
| Nc1cc(C(F)(F)F)c2nc1-c1nnc(o1)C(O)(C(F)(F)F)CCCCC[C@@H]1COCCN21 (single isomer, unassigned) [Compound 55] | > 1000 |
| Nc1cc(C(F)(F)F)c2nc1-c1nnc(o1)C(O)(C(F)(F)F)CCCCCCN2 (single isomer, unassigned) [Compound 56, 17-amino-6,15-bis(trifluoromethyl)-19-oxa-3,4,13,18-tetrazatricyclo[12.3.1.12,5]nonadeca-1(18),2,4,14,16-pentaen-6-ol] | < 500 |
